From the supplement of paper PMC10307832

What was measured:
Assay in all cases: relative viability (nuclei count vs DMSO), 5 days (fraction); higher = more cells survive
Tanzisertib + Pictilisib = compound: O[C@H]1CC[C@H](Nc2ncc3nc(Nc4c(F)cc(F)cc4F)n([C@H]4CCOC4)c3n2)CC1 [Tanzisertib] + CS(=O)(=O)N1CCN(Cc2cc3nc(-c4cccc5[nH]ncc45)nc(N4CCOCC4)c3s2)CC1 [Pictilisib] (partner 1 µM)
Outline: (§1)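 Lung cancer cell lines were seeded in 1536-well plates and dosed by pin tool the next day, with either a single drug or a fixed anchor-drug dose combined with five library-drug doses (not always all listed) spaced in √10 steps. Five days later, one step fixed the cells and stained their nuclei (final 0.05% Triton X-100, 1% formaldehyde, 1 ug/ml Hoechst), and nuclei were counted on 4× images. Relative viability is the nuclei count in treated wells divided by the count in vehicle wells, and each value is the median of duplicate plates.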

Tanzisertib + Decitabine = compound: O[C@H]1CC[C@H](Nc2ncc3nc(Nc4c(F)cc(F)cc4F)n([C@H]4CCOC4)c3n2)CC1 [Tanzisertib] + Nc1ncn([C@H]2C[C@H](O)[C@@H](CO)O2)c(=O)n1 [Decitabine] (partner 2 µM)
Outline: as §1

[1] = compound: C1CNCCC1C2=CC(=NN2)C3=CC=NC=C3 + CS(=O)(=O)N1CCN(Cc2cc3nc(-c4cccc5[nH]ncc45)nc(N4CCOCC4)c3s2)CC1 [Pictilisib] (partner 1 µM)
Outline: as §1

[2] = compound: C1CNCCC1C2=CC(=NN2)C3=CC=NC=C3 + CS(=O)(=O)CCNCc1ccc(-c2ccc3ncnc(Nc4ccc(OCc5cccc(F)c5)c(Cl)c4)c3c2)o1 [Lapatinib] (partner 2 µM)
Outline: as §1

Cell Line	relative viability (Tanzisertib + Pictilisib; first compound 0.08 µM)	relative viability (Tanzisertib + Pictilisib; first compound 0.253 µM)	relative viability (Tanzisertib + Pictilisib; first compound 0.8 µM)	relative viability (Tanzisertib + Pictilisib; first compound 2.53 µM)	relative viability (Tanzisertib + Pictilisib; first compound 8 µM)	relative viability (Tanzisertib + Decitabine; first compound 0.253 µM)	relative viability (Tanzisertib + Decitabine; first compound 0.8 µM)	relative viability (Tanzisertib + Decitabine; first compound 2.53 µM)	relative viability (Tanzisertib + Decitabine; first compound 8 µM)	relative viability ([1]; first compound 0.08 µM)	relative viability ([1]; first compound 0.8 µM)	relative viability ([1]; first compound 2.53 µM)	relative viability ([1]; first compound 8 µM)	relative viability ([2]; first compound 0.08 µM)	relative viability ([2]; first compound 0.8 µM)	relative viability ([2]; first compound 2.53 µM)	relative viability ([2]; first compound 8 µM)	relative viability (Tanzisertib + Decitabine; first compound 0.08 µM)
HCC-366	0.138	0.15	0.134	0.128	0.114	0.381	0.382	0.348	0.254	0.162	0.127	0.11	0.182	0.864	1.13	1.04	1.04	–
HCC-827	0.876	0.937	1.14	0.885	0.536	0.372	0.257	0.367	0.207	0.981	0.918	0.919	0.891	0.207	0.174	0.22	0.166	0.338
HOP-62	0.851	0.874	0.856	0.871	0.341	0.236	0.217	0.248	0.215	0.654	0.816	0.791	0.717	1.09	1.17	1.1	1.12	0.212
IA-LM	0.375	0.335	0.339	0.255	0.362	–	–	–	–	0.374	0.482	0.371	0.477	0.809	1.13	0.926	0.898	–
LC-2-ad	0.506	0.426	0.458	0.0954	0.359	0.788	0.777	0.806	0.722	0.43	0.469	0.625	0.48	1.04	1.05	1	0.914	0.774
LCLC-97TM1	–	0.16	0.176	0.159	0.164	0.264	0.201	0.245	0.228	0.275	0.241	0.283	0.175	1.05	1.39	1.59	1.04	0.25
LCLC-103H	0.698	0.642	0.648	0.616	0.608	0.768	0.711	0.672	0.72	0.499	0.61	0.617	0.64	–	–	–	–	0.763
LK-2	0.515	0.578	0.477	0.463	0.435	0.379	0.217	0.381	0.221	0.452	0.746	0.572	0.623	0.768	0.791	1.06	0.83	0.325
LOU-NH91	0.516	0.544	0.573	0.51	0.443	0.82	0.837	0.805	0.635	0.545	0.521	0.522	0.49	0.766	0.739	0.826	0.854	0.869
LU99A	0.322	0.303	0.319	0.358	0.321	0.88	0.984	0.874	0.911	0.321	0.366	0.316	0.307	0.974	1.18	1.28	1.1	1.03
LXF-289	0.887	0.745	0.459	0.735	0.804	0.379	0.387	0.416	0.39	0.776	0.845	0.823	0.829	0.934	0.937	0.864	0.91	0.419
NCI-H23	0.488	0.483	0.459	0.499	0.365	0.301	0.32	0.282	0.374	0.447	0.533	0.648	0.601	1.15	1.34	1.49	1.22	0.3
NCI-H322M	0.506	0.648	0.591	0.494	0.459	0.743	0.746	0.705	0.695	0.423	0.482	0.523	0.479	0.545	0.555	0.592	0.524	0.724
NCI-H358	0.393	0.389	0.331	0.293	0.332	0.221	0.189	0.248	0.181	0.323	0.376	0.357	0.422	0.388	0.463	0.43	0.462	0.232
NCI-H441	0.494	0.529	0.525	0.476	0.463	0.239	0.261	0.238	0.257	0.462	0.455	0.428	0.491	–	–	–	–	0.237
NCI-H522	–	–	–	–	–	0.699	0.618	0.803	0.636	–	–	–	–	–	–	–	–	0.807
NCI-H1299	0.762	0.713	0.699	0.893	0.729	–	–	–	–	0.711	0.886	0.772	0.819	0.96	0.948	1	0.891	–
NCI-H1563	0.661	0.638	0.572	0.601	0.607	–	–	–	–	0.575	0.662	0.592	0.611	0.747	0.885	0.896	1.03	–
NCI-H1648	–	–	–	–	–	0.6	0.613	0.524	0.376	–	–	–	–	–	–	–	–	0.487
NCI-H1703	0.272	0.245	0.258	0.224	0.218	–	–	–	–	0.253	0.253	0.21	0.22	1.03	1.51	1.12	1.03	–
NCI-H2228	0.499	0.444	0.32	0.291	0.367	–	–	–	–	0.388	0.483	0.409	0.544	0.926	1.06	1.62	1.19	–
NCI-H2342	–	–	–	–	–	0.778	0.694	0.781	0.815	–	–	–	–	–	–	–	–	0.78
SW 900	–	–	–	–	–	0.485	0.412	0.328	0.438	–	–	–	–	–	–	–	–	–
